Results published in PubChem BioAssay (NCI).
Values joined by “and” are separate entries in the source; they are usually repeats but may differ in a detail not shown here. Equal values may be shown once.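 96-well plates; 48 h exposure; 5 concentrations. Endpoints by linear interpolation between flanking doses. Not reached: highest tested concentration assigned. At the GI50, growth is halved. The concentration for full growth arrest is given as TGI.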

What was measured:
Test in all cases: NCI-60 cell line screen, 48 h
COLO 205 colon = test system: COLO 205 colon
HCC-2998 colon = test system: HCC-2998 colon
HL-60(TB) leukemia = test system: HL-60(TB) leukemia
HOP-92 NSCLC = test system: HOP-92 NSCLC
NCI-H23 lung = test system: NCI-H23 lung
SK-OV-3 ovarian = test system: SK-OV-3 ovarian
U251 CNS = test system: U251 CNS
BT-549 breast = test system: BT-549 breast
MDA-MB-435 = test system: MDA-MB-435
DU-145 prostate = test system: DU-145 prostate

SMILES: N#CCc1ccc(C(C#N)/C(CCCC(=O)Nc2cccc([N+](=O)[O-])c2)=N\NC(=O)NN)cc1 (stereo unspecified)
- TGI (COLO 205 colon): > 100 µM
- TGI (HCC-2998 colon): > 100 µM
- TGI (HL-60(TB) leukemia): > 100 µM
- TGI (HOP-92 NSCLC): > 100 µM
- TGI (NCI-H23 lung): > 100 µM
- TGI (SK-OV-3 ovarian): > 100 µM
- TGI (U251 CNS): > 100 µM

SMILES: N#Cc1ccccc1NC(=O)/C(=N\NC(=O)c1ccncc1)C(c1cnc2ccc([N+](=O)[O-])cc2n1)[N+](=O)[O-] (stereo unspecified)
- TGI (BT-549 breast): > 100 µM
- TGI (HCC-2998 colon): > 100 µM
- TGI (HL-60(TB) leukemia): > 100 µM
- TGI (HOP-92 NSCLC): > 100 µM
- TGI (MDA-MB-435): > 100 µM
- TGI (NCI-H23 lung): > 100 µM
- TGI (SK-OV-3 ovarian): > 100 µM
- TGI (U251 CNS): > 100 µM

SMILES: Clc1ccc(-n2nnc(C3=NCCCN3)c2-c2ccccc2)cc1
- TGI (COLO 205 colon): > 100 µM
- TGI (HCC-2998 colon): > 100 µM
- TGI (HL-60(TB) leukemia): > 100 µM
- TGI (HOP-92 NSCLC): > 100 µM
- TGI (NCI-H23 lung): > 100 µM
- TGI (SK-OV-3 ovarian): > 100 µM
- TGI (U251 CNS): > 100 µM

SMILES: c1cc2c(cc1C(N1CCNCC1)N1CCNCC1)OCO2
- TGI (BT-549 breast): > 100 µM
- TGI (COLO 205 colon): > 100 µM
- TGI (DU-145 prostate): > 100 µM
- TGI (HOP-92 NSCLC): > 100 µM
- TGI (MDA-MB-435): > 100 µM
- TGI (NCI-H23 lung): > 100 µM
- TGI (SK-OV-3 ovarian): > 100 µM
- TGI (U251 CNS): > 100 µM

SMILES: CC(=O)OCC1OC(OC2CC3C(C)(C)C(OC(C)=O)CC[C@]3(C)C3CCC45CC4(CC[C@H]5C(C)CC(O)[C@@H](O)C(C)(C)O)[C@]23C)C(O)C(O)C1O (stereo partly specified)
- GI50 (COLO 205 colon): 1.93 µM
- TGI (COLO 205 colon): 14 µM and 3.95 µM
- TGI (HCC-2998 colon): 12.9 µM
- GI50 (HL-60(TB) leukemia): 2.45 µM
- TGI (HL-60(TB) leukemia): 11.9 µM and 5.3 µM
- GI50 (HOP-92 NSCLC): 4.05 µM
- TGI (HOP-92 NSCLC): 13.1 µM and 11.7 µM
- GI50 (NCI-H23 lung): 13.5 µM
- TGI (NCI-H23 lung): 14.9 µM and 26.3 µM
- GI50 (SK-OV-3 ovarian): 12.4 µM
- TGI (SK-OV-3 ovarian): 11.6 µM and 24.8 µM
- GI50 (U251 CNS): 4.3 µM
- TGI (U251 CNS): 12.3 µM and 15.6 µM

SMILES: COc1ccc(/C=C2\CN(C(=O)C(Cl)Cl)C/C(=C\c3ccc(OC)c(OC)c3)C2=O)cc1OC
- GI50 (BT-549 breast): 0.535 µM
- TGI (BT-549 breast): 2.98 µM
- GI50 (COLO 205 colon): 0.307 µM
- TGI (COLO 205 colon): 1.6 µM
- GI50 (HCC-2998 colon): 0.39 µM
- TGI (HCC-2998 colon): 1.44 µM
- GI50 (HL-60(TB) leukemia): 0.221 µM
- TGI (HL-60(TB) leukemia): 0.711 µM
- GI50 (HOP-92 NSCLC): 0.532 µM
- TGI (HOP-92 NSCLC): 3.79 µM
- GI50 (MDA-MB-435): 0.0528 µM
- TGI (MDA-MB-435): 0.265 µM
- GI50 (NCI-H23 lung): 0.41 µM
- TGI (NCI-H23 lung): 1.79 µM
- GI50 (SK-OV-3 ovarian): 2.46 µM
- TGI (SK-OV-3 ovarian): > 100 µM
- GI50 (U251 CNS): 0.0405 µM
- TGI (U251 CNS): 1.12 µM

SMILES: Cc1cccc(C)c1NC(=O)CCCC(=O)CC(=O)/C=C/c1ccccc1
- TGI (COLO 205 colon): > 100 µM
- TGI (HOP-92 NSCLC): > 100 µM
- TGI (NCI-H23 lung): > 100 µM
- TGI (SK-OV-3 ovarian): > 100 µM
- TGI (U251 CNS): > 100 µM

SMILES: Cc1nc2c(=O)[nH]c(=O)n(C)c2[nH]c1=O
- TGI (COLO 205 colon): > 100 µM
- TGI (HCC-2998 colon): > 100 µM
- TGI (HL-60(TB) leukemia): > 100 µM
- TGI (HOP-92 NSCLC): > 100 µM
- TGI (NCI-H23 lung): > 100 µM
- TGI (SK-OV-3 ovarian): > 100 µM
- TGI (U251 CNS): > 100 µM

SMILES: C=CC[C@H]1C[C@@]2(C)OC[C@H](C(C)C)N2C1=O
- TGI (COLO 205 colon): > 100 µM
- TGI (HOP-92 NSCLC): > 100 µM
- TGI (NCI-H23 lung): > 100 µM
- TGI (U251 CNS): > 100 µM

SMILES: CCCCCCCCCCC(C)CCCCCCC(=O)OCC(COP(=O)([O-])OCC[N+](C)(C)C)OC(=O)CCCCCCC(C)CCCCCCCCCC (stereo unspecified)
- TGI (COLO 205 colon): > 100 µM
- TGI (HCC-2998 colon): > 100 µM
- TGI (HL-60(TB) leukemia): > 100 µM
- TGI (HOP-92 NSCLC): > 100 µM
- TGI (NCI-H23 lung): > 100 µM
- TGI (SK-OV-3 ovarian): > 100 µM
- TGI (U251 CNS): > 100 µM

SMILES: S=c1[nH]c(=S)c2sc(=S)n(-c3ccccc3)c2[nH]1
- TGI (COLO 205 colon): > 100 µM
- TGI (HCC-2998 colon): > 100 µM
- TGI (HL-60(TB) leukemia): > 100 µM
- TGI (HOP-92 NSCLC): > 100 µM
- TGI (NCI-H23 lung): > 100 µM
- TGI (SK-OV-3 ovarian): > 100 µM
- TGI (U251 CNS): > 100 µM
